Measurements taken from patent US20190241962A1, “GENETIC SUSCEPTIBILITY DIAGNOSIS AND TREATMENT OF MENTAL DISORDERS” (priority 2016, published 2019).
“Also recorded” adds a separate entry of the source.

What was measured:
ABHD6 = test: RT-PCR ABHD6 mRNA level in the cortex; type: in vivo, mice
Protocol: (§1) 100 microliters of 2-propanol was added. […] RNA was stored at −80 deg C.

NAPE-PLD = test: RT-PCR NAPE-PLD mRNA level in the cortex; type: in vivo, mice
Protocol: as §1

GAD67 = test: RT-PCR GAD67 mRNA level in the cortex; type: in vivo, mice
Protocol: as §1

CB2 receptor = test: RT-PCR CB2 receptor mRNA level in the cortex; settings: PCP vs control group
Protocol: Each brain area was placed in an Eppendorf vessel and covered with RNAlater® solution (Ambion). Eppendorfs were stored overnight at 4° C. and then stored at (−)80° C. for permanent use.
Twenty microliters of 1-bromo-3-chloropropane were added and the Eppendorf was vortexed. After 10 min at room temperature it was centrifuged at 12,000×g for 15 minutes at 4° C. Then the colorless upper aqueous phase was removed to a fresh tube. 100 microliters of 2-propanol was added. Samples were centrifuged again 12,000×g for 10 minutes at 4° C. The supernatant was removed and the RNA pellet was washed with 200 ul cold 75% ethanol. The sample was re-centrifuged at 8000×g for 5 minutes at 4° C. The RNA pellet was dried for 5 minutes by air-drying on ice and 50 ul DEPC water were added to the RNA pellet. RNA was stored at −80 deg C. Genomic DNA strands were then removed by Turbo DNA-free Kit according to manufacturer's recommendation. RNA level was read by Nanodrop® reader. cDNA was prepared according to the manufacturer recommendation using High Capacity cDNA Reverse Transcription Kit (Applied Biosystems).
RT-PCR reaction mix was prepared with Power SYBR® Green PCR Master Mix (Applied Biosystems) according to manufacturer instructions. Mixes were read with Mx300P (Stratagen) and the results of Ct were analysed according to the delta-delta Ct method of analysis.

CB1 receptor = test: RT-PCR CB1 receptor mRNA level in the cortex; type: in vivo, mice
Protocol: as §1

IL-6 = test: RT-PCR IL-6 mRNA level in the cortex; type: in vivo, mice
Protocol: as §1

MGL = test: RT-PCR MGL mRNA level in the cortex; type: in vivo, mice
Protocol: as §1

FAAH = test: RT-PCR FAAH mRNA level in the cortex; type: in vivo, mice
Protocol: as §1

Sabra mice = test: Open-field test, ambulation behavior, PCP mouse model of schizophrenia
[1] = tested on: endocannabinoid catabolic enzymes (FAAH, MGL, ABHD6); test: RT-PCR mRNA level of endocannabinoid catabolic enzymes in cortex and brainstem; type: in vivo, mice; settings: BCP after exposure to phencyclidine, females
Protocol: as §1

[2] = PCP vs control group, female mice, left cortex
[3] = PCP vs control group, female mice, right cortex
[4] = PCP vs control group, male mice, left cortex
[5] = PCP vs control group, female mice, right and left cortices
[6] = PCP vs control group, male mice, cortex
[7] = PCP vs control group, male mice, right cortex
[8] = BCP after PCP, female mice, cortex
[9] = BCP after PCP, female mice, right and left cortices
[10] = BCP after PCP, male mice, cortex

c1ccc(C2(N3CCCCC3)CCCCC2)cc1 [PCP, Phencyclidine]
ABHD6 mRNA level (ABHD6; [2]): significantly decreased; also recorded: reduced
ABHD6 mRNA level (ABHD6; [3]): not in the right cortex
ABHD6 mRNA level (ABHD6; [4]): not in males
NAPE-PLD mRNA level (NAPE-PLD; [5]): reduced
NAPE-PLD mRNA level (NAPE-PLD; [6]): not altered
GAD67 mRNA level (GAD67; [5]): reduced
GAD67 mRNA level (GAD67; [6]): not altered
CB2 receptor mRNA level (CB2 receptor; female mice, right cortex): reduced
CB2 receptor mRNA level (CB2 receptor; left cortex): no change
CB1 receptor mRNA level (CB1 receptor; [3]): elevated; also recorded: increased
CB1 receptor mRNA level (CB1 receptor; [7]): elevated
IL-6 mRNA level (IL-6; [2]): not in the left cortex
IL-6 mRNA level (IL-6; [3]): reduced
IL-6 mRNA level (IL-6; [4]): not in the left cortex
IL-6 mRNA level (IL-6; [7]): elevated
MGL mRNA level (MGL; [2]): significantly decreased; also recorded: reduced
MGL mRNA level (MGL; [4]): not in males
FAAH mRNA level (FAAH; [2]): significantly decreased; also recorded: reduced
ambulation behavior (Sabra mice; PCP 5 mg/kg vs control group, Sabra female mice): reduced
ambulation behavior (Sabra mice; PCP 5 mg/kg vs control group, Sabra male mice): elevated

C=C1CC/C=C(\C)CC[C@@H]2[C@@H]1CC2(C)C [BCP, beta-caryophyllene]
ABHD6 mRNA level (ABHD6; [8]): did not reverse; also recorded: did not alter gene expression of ABHD6
NAPE-PLD mRNA level (NAPE-PLD; [9]): did not reverse this effect
NAPE-PLD mRNA level (NAPE-PLD; [10]): did not affect the expression level of NAPE-PLD mRNA
GAD67 mRNA level (GAD67; [9]): did not reverse this effect
GAD67 mRNA level (GAD67; [10]): did not affect the expression level of GAD67 mRNA
CB1 receptor mRNA level (CB1 receptor; [8]): did not alter gene expression of CB1 receptor
CB1 receptor mRNA level (CB1 receptor; [10]): did not alter gene expression of CB1 receptor
IL-6 mRNA level (IL-6; [8]): did not alter gene expression of IL-6
IL-6 mRNA level (IL-6; [10]): reversed the effect of PCP
MGL mRNA level (MGL; [8]): did not reverse; also recorded: did not alter gene expression of MGL
FAAH mRNA level (FAAH; [8]): did not reverse; also recorded: did not alter gene expression of FAAH
FAAH mRNA level (FAAH; BCP after PCP, male mice): reversed the effect of PCP
mRNA level of the selected endocannabinoid catabolic enzymes [1]: did not lead to significant changes
ambulation behavior (Sabra mice; BCP 10 mg/kg one hour after PCP, Sabra female mice): reversed altered behavior
ambulation behavior (Sabra mice; BCP 10 mg/kg one hour after PCP, Sabra male mice): reversed altered behavior
